Entries after “also recorded” stand apart in the source; their conditions may differ. Where two headings read alike, the source gives them in different places.
How the values were obtained:
[1] = with inhibitors commonly given to humans; in words; cited from earlier work
[2] = tested on: first-pass effect; details: orally administered drugs; in words; cited from earlier work
[3] = tested on: first-pass effect of cyclosporin; details: heart transplant patients, cyclosporin co-administered with ketoconazole; cited from earlier work
[4] = tested on: human cytochrome P450; assay: Protocol C: Assessment of human cytochrome P450-mediated biotransformation (terfenadine, human hepatic S9); format: in vitro ADME
Description: The process of preparing incubation mixtures begins by mixing 10 uL of ethanol or an ethanolic solution containing an inhibitor with 100 uL of 100 mg/mL bovine serum albumin (Sigma) dissolved in reaction buffer at room temperature. Reaction buffer is composed of 0.10 M sodium phosphate, 1.0 mM ethylenediaminetetraacetic acid, and 5.0 mM magnesium chloride, pH 7.4 (all reagents: Fisher Scientific). Inhibitory chemicals used were ketoconazole (Research Diagnostics, Inc.), miconazole, bergapten, xanthotoxin (previous three from Sigma), bergamotin, imperatorin, isopimpinellin, psoralen, angelicin (previous five from Indofine Chemical Company, Inc.), and fractions or precipitates resulting from Protocols A and B above. When possible, final inhibitor concentrations were expressed in molarity by calculation from the weighed material or by interpolation from HPLC calibration curves prepared with reference materials; otherwise, concentrations are expressed as weight per volume. Reaction tubes are placed on ice in preparation for the manipulations that follow. Sufficient reaction buffer is added so that the final volume of each tube will be 500 uL, 5 uL of a 100-fold concentrate for generating reduced nicotinamide adenine dinucleotide phosphate is added (such that completed reaction mixture contains 1.0 mM nicotinamide adenine dinucleotide phosphate, 1 U/mL glucose-6-phosphate dehvdrogenase, and 10 mM glucose-6-phosphate; all from Sigma), and then human hiepatic S9 (Anatomic Gift Foundation) is thawed and added in sufficient amounts to cause readily detectable amounts of metabolites to be formed in control reactions (amount necessary varies among individuals, but 10 uL is typical).
The samples prepared above are readied for HPLC assessment using the protocol that follows. Each tube is vortex mixed and centrifuged for 10 min at setting 35, the resulting supernatant is transferred to a clean tube, and the liquid is evaporated using a Speed Vac apparatus. The residue in each tube is first dissolved in 40 uL 1:1 acetonitrile:water, 2.5 mL of acetonitrile is added, and the centrifuge-transfer-evaporate step just described is repeated.
The dry residue resulting from the above-described experiments and sample preparation protocol may be analyzed for terfienadine metabolites using the HPLC method described below and may also be used to quantitate the inhibitory chemicals that were added to the reaction (see Protocol B). Linear gradients are used for elution and are formed by mixing mobile phase A composed of water with mobile phase B composed of 0.025% (v/v) formic acid in acetonitrile (instrument: Hewlett Packard). The elution time, in minutes, the percentage of mobile phase B present in the mixed mobile phase, and the flow rate (mL/min) are as follows: 0, 10, 0.10; 2, 10, 0.10; 3.5, 10, 0.20; 4, 10, 0.25; 5, 10, 0.25; 30, 55, 0.25; 32, 98, 0.25; 33, 98, 0.40; 39.8, 98, 0.40; 40, 98, 0.25; 45, 10, 0.25; 45.25, 10, 0.20; 50, 10, 0.20; 50.25, 10, 0.10. The chromatographic column has dimensions of 150 mm length×2.1 mm internal diameter. is packed with a proprietary material (Prism, Keystone Scientific, Inc.), is protected with a 2 mm internal diameter column containing the same material and with a PTFE filter, and is maintained at 35+/-0.2 C. The dry sample residue is mixed with 60 uL of 1:1 acetonitrile:water followed by 40 uL water just prior to each 50.25 min run cycle. The column eluate from each 10 uL injection is monitored for fluorescence with excitation at 228 nm, emission at 291 nm, and bandpass filtration at 280 nm.

[5] = in words; cited from earlier work
[6] = tested on: cytochrome P450; details: given to humans in large doses; in words; cited from earlier work

In the case of `Cc1nnc2n1-c1ccc(Cl)cc1C(c1ccccc1Cl)=NC2` [triazolam], the “increase of bioavailability by inhibitors” value [1] is given as “bioavailability is increased by inhibitors”.

In the case of `OC(Cn1cncn1)(Cn1cncn1)c1ccc(F)cc1F` [fluconazole], the “inhibition of the first-pass effect” value [2] is given as “identified as inhibitors of the first-pass effect”.

For `CC(=O)N1CCN(c2ccc(OCC3COC(Cn4ccnc4)(c4ccc(Cl)cc4Cl)O3)cc2)CC1` (stereo not shown) [ketoconazole], the “reduction of the dose of cyclosporin required” value [3] is listed as “approximately 85%” and the “inhibition of the first-pass effect” value [2] is listed as “inhibition of the first-pass effect of cyclosporin; also recorded: identified as inhibitors of the first-pass effect”.

With `CC(C)=CCOc1c2occc2cc2ccc(=O)oc12` [imperatorin] the “first-pass activity according to Protocol C” value ([4]; 2000 nM, in words) was “non-first-pass inhibiting” and the “first-pass effect inhibition (determined herein)” value (from here on “first-pass effect inhibition”) ([4]; in words) was “ineffective”.

For `CO[C@H]1C[C@H](O[C@H]2[C@H](C)[C@@H](O[C@@H]3O[C@H](C)C[C@H](N(C)C)[C@H]3OC(C)=O)[C@@H](C)C[C@@]3(CO3)C(=O)[C@H](C)[C@@H](OC(C)=O)[C@@H](C)[C@@H](C)OC(=O)[C@@H]2C)O[C@@H](C)[C@@H]1OC(C)=O` [troleandomycin], the “inhibition of the first-pass effect” value [2] is given as “identified as inhibitors of the first-pass effect”.

For `COc1c2ccoc2cc2oc(=O)ccc12` [bergapten, 5-methoxypsoralen], the toxicity / phototoxicity [5] is listed as “toxic, in particular, phototoxic”.

In the case of `CC[C@H]1OC(=O)[C@H](C)[C@@H](O[C@H]2C[C@@](C)(OC)[C@@H](O)[C@H](C)O2)[C@H](C)[C@@H](O[C@@H]2O[C@H](C)C[C@H](N(C)C)[C@H]2O)[C@](C)(O)C[C@@H](C)C(=O)[C@H](C)[C@@H](O)[C@]1(C)O` [erythromycin], the “inhibition of the first-pass effect” value [2] is listed as “identified as inhibitors of the first-pass effect”.

In the case of `COc1c2ccoc2c(OC)c2oc(=O)ccc12` [isopimpinellin], the “first-pass effect inhibition” value ([4]; in words) is reported as “ineffective”.

For `Clc1ccc(COC(Cn2ccnc2)c2ccc(Cl)cc2Cl)c(Cl)c1` (stereo not shown) [miconazole], the “inhibition of the first-pass effect” value [2] is listed as “identified as inhibitors of the first-pass effect”.

For `O=c1ccc2cc3ccoc3cc2o1` [psoralen], the “first-pass effect inhibition” value ([4]; in words) is given as “ineffective”, the “inhibition of cytochrome P450” value [6] is given as “do inhibit cvtochrome P450” and the toxicity / phototoxicity [5] is given as “toxic, in particular, phototoxic”.

For `COc1c2occc2cc2ccc(=O)oc12` [xanthotoxin, 8-methoxypsoralen], the toxicity / phototoxicity [5] is listed as “toxic, in particular, phototoxic”.

With `CC(C)=CCC/C(C)=C/COc1c2ccoc2cc2oc(=O)ccc12` [bergamottin] the “first-pass effect inhibition” value [4] was “ineffective”.

For `O=c1ccc2ccc3occc3c2o1` [angelicin], the “first-pass effect inhibition” value ([4]; in words) was “ineffective”.

In the case of `CC(C)c1nc(CN(C)C(=O)N[C@H](C(=O)N[C@@H](Cc2ccccc2)C[C@H](O)[C@H](Cc2ccccc2)NC(=O)OCc2cncs2)C(C)C)cs1` [ritonavir], the “inhibition of the first-pass effect” value [2] is given as “identified as inhibitors of the first-pass effect”.

For `CCC(C)n1ncn(-c2ccc(N3CCN(c4ccc(OCC5COC(Cn6cncn6)(c6ccc(Cl)cc6Cl)O5)cc4)CC3)cc2)c1=O` (stereo not shown) [itraconazole], the “inhibition of the first-pass effect” value [2] is given as “identified as inhibitors of the first-pass effect”.

Reference: patent publication US6255337A, “Anti-first-pass effect compounds and citrus extract” (Bioavailability Systems, L.L.C., priority 1999, dated 2001)
